The values below come from patent publication US4713200A, “Pesticidal compounds” (Burroughs Wellcome Co., priority 1984, dated 1987).

Type in all cases: in vivo
The subject of series [1] is female Culex quinquefasciatus. The experiment in a line: Knockdown activity against mosquitoes (wind tunnel spray). To be noted: for KD10 min % effect: 10 min; for Kill: 24 hrs. How it is done:
The knockdown activity of compounds was assessed as follows: Caged female Culex quinquefasciatus were sprayed in a wind tunnedl with 0.2 ml of a solution of the compound in odourless petroleum distillate (OPD)/dichloromethane (80/20) and knockdown was assessed at minute intervals for 10 mins. The insects were transferred to a holding cup and kept for 24 hrs with sugar/water. Mortalities were assessed at 24 hrs.

The test system of series [2] is Mustard Beetle (Phaedon cochleariae) second-instar larvae. The experiment in a line: Activity against mustard beetle larvae (topical application). How it is done:
Second-instar larvae were used in all the tests and compounds were applied topically to the dorsal surface of the abdomen, using a microapplicator. Between 10 and 33 larvae were used at each concentration of the chemicals. Analar acetone and Analar butanone were used as solvents. In the first tests a 0.5 μl droplet was applied to each larva but after this the droplet size was increased to 1 μl as the larvae were unaffected by the solvents.
After treatment, all the larvae (usually 20) tested at a particular concentration were confined together on turnip leaves. The leaves were placed on damp filter paper in a petri dish and covered with a second layer of filter paper in the lid of the dish.
The petri dishes were maintained in an incubator at 20° C. and 16 h light. The turnip leaves were replaced as they were eaten by the larvae.
The larvae were assessed at intervals, from 1 h to 216 h after treatment. The following categories were used to classify the larvae:
i. Healthy larvae which were feeding and moved around the dish

Series [3] deals with third instar larvae of Aedes aegypti. The experiment in a line: Activity against mosquito larvae (aqueous suspension). The settings on record: 2.5 ppm cpd (+ 12.5 pb).
A further series has as its system Sitophilus granarius. Description: Activity against grain beetles (deposits on grain). To be noted: 6 days. How it is done: Mortality was assessed after 6 days.
The subject of a further series is male Blattella germanica. The experiment in a line: Activity against cockroaches (deposit on glass). As for the experimental part:
Knockdown was assessed after 10 and 60 minutes and mortality after 1 day and 6 days.

Series [4] has as its system Mixed sex Musca domestica. Description: Knockdown activity against houseflies (Kearns and March chamber spray). The settings on record: for KD10 min % effect: 10 min. As for the experimental part: Mixed sex Musca domestica were held in a Kearns and March chamber and sprayed with 0.2 ml of a solution of the compound in OPD/dichloromethane. Knockdown was assessed at 1 min. intervals for 10 mins.

Series [5] has as its system female Musca domestica (WRL strain). Description: Lethal activity against house flies (topical application, with and without piperonyl butoxide). The settings on record: mortality after 48 hrs; for LD50 (synergised): with synergist 6 μg piperonyl butoxide per insect. How it is done:
The test compound was applied with the application of the synergist (6 μg piperonyl butoxide (PB) per insect). Mortality was assessed after 48 hrs.

The subject of series [6] is fully engorged female Boophilus microplus, susceptible strain. Description: Activity against the cattle tick, injection. To be noted: 10 μg/tick, 14 days. How it is done:
The compound was supplied as a […] solution in DMSO:Acetone (1:1). Administration of the compound was by means of a microapplicator which was preset to deliver 0.2 μl of solution. The compound in solution was injected into fully engorged female Boophilus microplus, susceptible strain, at a site just lateral to the mouthparts at the rate of 10 μg/tick. Reducing the concentration reduced the dose delivered.
After injection the ticks were maintained at 24° C. and 85% RH for 14 days. At this time the ticks were examined for the presence of viable eggs which gave the percent inhibition of reproduction (% IR).

Where [7] appears, read: 0.03 % cpd (0.15 piperonyl butoxide).
Where [8] appears, read: 0.3 % cpd (1.5 piperonyl butoxide).
Setting [9] is: 500 μg/ml, 1 hour after treatment.
[10] abbreviates: 500 μg/ml, 20 hours after treatment.
Where [11] appears, read: 1000 μg/ml, 1 hour after treatment.
Where [12] appears, read: 1000 μg/ml, 20 hours after treatment.
The mark [13] stands for this setting: 0.1 % cpd (piperonyl butoxide entry printed "^").
[14] abbreviates: 0.1 % cpd (0.5 piperonyl butoxide).

`CC(C)CNC(=O)/C=C/C=C/CCCCOCc1cccc(C(F)(F)F)c1` [Example 2, N-isobutyl 9-(3'trifluoromethylbenzyloxy)-(2E,4E)-nonadienamide]: the values for the kT50 in series [1] (setting [7]), in series [1] (setting [8]) and in series [4] (setting [13]) were 8.6 min, 1.2 min and 6.1 min, respectively. Moreover, the figures for the “KD10 min % effect” value in series [1] (setting [7]), in series [1] (setting [8]) and in series [4] (setting [13]) were 56%, 100% and 86%, respectively. The Kill in series [1] (setting [7]) is listed as 4%; in series [1] (setting [8]), 71%. The “Dead (number of larvae)” value in series [2] (setting [9]) came to 0; in series [2] (setting [10]), 24; in series [2] (setting [11]), 0; in series [2] (setting [12]) it was 29. For the same molecule, the “Healthy (number of larvae)” value came to 0 in series [2] (setting [9]), 9 in series [2] (setting [10]), 0 in series [2] (setting [11]) and 4 in series [2] (setting [12]). For the same molecule, the “Paralysed (number of larvae)” value is recorded as 33 in series [2] (setting [9]), 0 in series [2] (setting [10]), 33 in series [2] (setting [11]) and 0 in series [2] (setting [12]). Also, the “% mortality” value in series [3] is 100%; with Sitophilus granarius (20 ppm cpd (+ 100 pb)), 84%. Moreover, the “% mortality 1 day” value in the series on male Blattella germanica (1400 mg/m^2 (+ 1400 pb)) is reported as 50%. Also, the “% mortality 6 day” value in the series with male Blattella germanica (1400 mg/m^2 (+ 1400 pb)) is reported as 50%. In series [5], the “LD50 (synergised)” value is reported as 0.2 μg/fly.
Regarding `CC(C)CNC(=O)/C=C/C=C/CCCCCCOCc1cc(C(F)(F)F)cc(C(F)(F)F)c1` [Example 4, N-isobutyl 11-(3',5'-bis-trifluoromethylbenzyloxy)-(2E,4E)-undecadienamide], in the series on Sitophilus granarius (50 ppm cpd (+ 500 pb)), the “% mortality” value came to 100%. Further, in the series on male Blattella germanica (700 mg/m^2 (+ 700 pb)), the “% mortality 1 day” value turned out to be 32% and the “% mortality 6 day” value stood at 32%. In addition, the “LD50 (synergised)” value in series [5] came to 0.025 μg/fly. Besides, in series [5] (without synergist), the “LD50 (unsynergised)” value was found to be 0.12 μg/fly.
Take `CC(C)CNC(=O)/C=C/C=C/CCCCCOCc1ccccc1` [Example 8, N-iso-butyl 10-(benzyloxy)-(2E,4E)-decadienamide]: the “LD50 (synergised)” value in series [5] is greater than 5 μg/fly.
In the case of `CC(C)CNC(=O)/C=C/C=C/CCCCOCCOc1cc(Cl)cc(Cl)c1` [Example 66, N--isobutyl 9-(2-(3',5'-dichlorophenoxy)-ethoxy)-nona-2E, 4E-dienamide], in series [1] (setting [14]), the kT50 is 1.2 min, the “KD10 min % effect” value was determined as 96% and the Kill is 40%. Further, in series [4] (setting [14]), the kT50 stood at 5.1 min and the “KD10 min % effect” value was found to be 96%.
`CC(C)C(C)NC(=O)/C=C/C=C/CCCCOCc1ccc(OC(F)(F)F)cc1` (stereo not shown) [Example 85]: in series [6], the “% IR (percent inhibition of reproduction)” value was 100%. Further, the mortality at 10 µg/tick in series [6] (Rhipicephalus microplus, 336 h, read-out: % kill) is 50%.
As to `CC(C)ONC(=O)/C=C/C=C/CCCCOCc1cccc(C(F)(F)F)c1` [Example 89], in series [5], the “LD50 (synergised)” value is reported as greater than 5 μg/fly.
Same read-out and setting: under `CC(NC(=O)/C=C/C=C/CCCCCCOCc1cc(C(F)(F)F)cc(C(F)(F)F)c1)C(C)(C)C` (stereo not shown) [Example 108] stands 0.09 μg/fly; under `CC1(C)CC1NC(=O)/C=C/C=C/CCCCCCOCc1cc(C(F)(F)F)cc(C(F)(F)F)c1` (stereo not shown) [Example 109], 0.09 μg/fly.
The same measure, in the same setting: under `CC(C)CNC(=O)/C=C/C=C/CCCCC(=O)Cc1cccc(C(F)(F)F)c1` [Example 122, N--Isobutyl 11-(3-trifluoromethylphenyl)-10-oxo-undeca-2E,-dienamide] stands greater than 1.5 μg/fly; under `CCC(CCC/C=C/C=C/C(=O)NCC(C)C)N(C)Cc1ccccc1` (stereo not shown) [Example 126, N--Isobutyl N'--methyl-N'--benzyl-9-aminoundeca-2E, 4E-dienamide], greater than 20 μg/fly.
